pIC50: −log10 of the molar value. “And” between values parts separate entries of the source, which are not always exact repeats. Equal values may be shown once.
System: 429239-143-T-J1-PDC complex spheroid viability
Assay: Anticancer human tumor 429239-143-T-J1-PDC patient-derived small cell lung carcinoma cell line growth inhibition [POLQ]
Details: for viability, T/C: stronger effect = lower value
Protocol: Multicellular complex tumor spheroid response to Polymerase (POL) inhibitors (novobiocin, ART-558, RP6685) in combination with a variety of drugs and investigational agents in selected tumor cell lines
The POL inhibitors (novobiocin, ART-558, and RP6685) were evaluated both individually and in combination with standard of care and investigational anticancer small molecules within a complex spheroid model of solid tumors. . Complex spheroids include a stromal component modeled by human endothelial cells (HUVEC) and fibroblasts modeled by human mesenchymal stem cells (MSCs). The concentration ranges selected for each drug and investigational agent were based upon clinically achievable concentrations if the clinical Cmax of the agent was known.
Compounds. The drugs and investigational agents: novobiocin (NSC847541), ART-558 (NSC835418), RP-6685 (NSC848927), peposertib (NSC802822), ceralasertib (NSC780249), elimusertib (NSC800525), camonsertib (NSC841442), AZD-1390 (NSC803789), olaparib (NSC753686), talazoparib (NSC767125), rucaparib (NSC756644), sotorasib (NSC818433), MRTX-1133 (NSC836407), SN-38 (NSC673596), topotecan (NSC609699), epotoside (NSC141540), doxorubicin (NSC123127), gemcitabine (NSC613327), 5-fluorouracil (NSC19893), paclitaxel (NSC125973), vemurafenib (NSC761431), MSA-2 (NSC828583), SN-011 (NSC837082), adavosertib (NSC754352), prexasertib (NSC758257), carboplatin (NSC241240) and oxaliplatin (NSC266046), were obtained from the National Cancer Institute (NCI) Developmental Therapeutics Program Chemical Repository (21). The FDA-approved anticancer drug set is available from the Developmental Therapeutics Program at https://dtp.cancer.gov/organization/dscb/obtaining/. […] The stock solutions were prepared in dimethyl sulfoxide (DMSO, Sigma-Aldrich, St. Louis, MO, cat. D2650), except for the platinum compounds which were prepared in saline (Quality Biological, Gaithersburg, MD, cat. 114-055-101), at 800-fold the tested concentration and stored at -70 degrees C prior to their use. All drugs and investigational agents were tested over a range starting from a high concentration at or near the clinical Cmax and decreasing in half-log increments. If the clinical Cmax for an agent had not been determined, the highest concentration tested was 10 microM, except for SN-38, which was tested at a high concentration of 1 microM.
Cell Culture. All cells were maintained in an incubator at 37 degrees C and 5% CO2 with 95% humidity. The PDC lines were cultured according to standard operating procedures established by the NCI PDMR (https://pdmr.cancer.gov). Table 3 of the manuscript, lists the cell lines along with the number of the three cell types plated to form the mct-spheroids and media for tumor cell growth. After thawing, all PDC lines, except 997537-175-T-J1-PDC and 415267-285-R-J2-PDC, were cultured in Matrigel-coated flasks prepared with a working solution of 1X Ham's F-12 nutrient mix, without supplementation (Thermo Fisher Scientific, cat. 11765054), 100 U/mL penicillin-streptomycin (Thermo Fisher Scientific, cat. 15140122), and 2.5% Matrigel (Corning Inc., Corning, NY, cat. 354248) for the first three passages. The two PDC lines 997537-175-T-J1-PDC and 415267-285-R-J2-PDC were cultured on uncoated flasks. The 857933-349-R-J2-PDC line was cultured in 6C/Colon 1B media containing advanced DMEM/F-12 (Thermo Fisher Scientific, cat. 12634028), 10 mM HEPES (Thermo Fisher Scientific, cat. 15630080), 1X GlutaMAX supplement (Thermo Fisher Scientific, cat. 35050061), 0.1 mg/mL primocin (InvivoGen, San Diego, CA, cat. ant-pm-2), 10% defined fetal bovine serum, heat inactivated (HyClone Laboratories Inc., Logan, UT, cat. SH30070.03HI), 50% L-WRN conditioned media (ATCC, cat. CRL-3276), 1.25 mM N-Acetyl-L-cysteine (Sigma-Aldrich, cat. A9165), 10 mM nicotinamide (Sigma-Aldrich, cat. N0636), 1X B-27 supplement (Thermo Fisher Scientific, cat. 17504044), 1X N-2 supplement (Thermo Fisher Scientific, cat. […]

[1] = curve of first compound, second compound 0.0316 µM
[2] = curve of first compound, second compound 0.1 µM
[3] = curve of first compound, second compound 0.316 µM
[4] = curve of first compound, second compound 1 µM
[5] = curve of first compound, second compound 3.16 µM
[6] = curve of first compound, second compound 10 µM
[7] = second compound 0.0316 µM, first compound 0.0316 µM
[8] = second compound 0.0316 µM, first compound 0.1 µM
[9] = second compound 0.0316 µM, first compound 0.316 µM
[10] = second compound 0.0316 µM, first compound 1 µM
[11] = second compound 0.0316 µM, first compound 3.16 µM
[12] = second compound 0.0316 µM, first compound 10 µM
[13] = second compound 0.1 µM, first compound 0.0316 µM
[14] = second compound 0.1 µM, first compound 0.1 µM
[15] = second compound 0.1 µM, first compound 0.316 µM
[16] = second compound 0.1 µM, first compound 1 µM
[17] = second compound 0.1 µM, first compound 3.16 µM
[18] = second compound 0.1 µM, first compound 10 µM
[19] = second compound 0.316 µM, first compound 0.0316 µM
[20] = second compound 0.316 µM, first compound 0.1 µM
[21] = second compound 0.316 µM, first compound 0.316 µM
[22] = second compound 0.316 µM, first compound 1 µM
[23] = second compound 0.316 µM, first compound 3.16 µM
[24] = second compound 0.316 µM, first compound 10 µM
[25] = second compound 1 µM, first compound 0.0316 µM
[26] = second compound 1 µM, first compound 0.1 µM
[27] = second compound 1 µM, first compound 0.316 µM
[28] = second compound 1 µM, first compound 1 µM
[29] = second compound 1 µM, first compound 3.16 µM
[30] = second compound 1 µM, first compound 10 µM
[31] = second compound 3.16 µM, first compound 0.0316 µM
[32] = second compound 3.16 µM, first compound 0.1 µM
[33] = second compound 3.16 µM, first compound 0.316 µM
[34] = second compound 3.16 µM, first compound 1 µM
[35] = second compound 3.16 µM, first compound 3.16 µM
[36] = second compound 3.16 µM, first compound 10 µM
[37] = second compound 10 µM, first compound 0.0316 µM
[38] = second compound 10 µM, first compound 0.1 µM
[39] = second compound 10 µM, first compound 0.316 µM
[40] = second compound 10 µM, first compound 1 µM
[41] = second compound 10 µM, first compound 3.16 µM
[42] = second compound 10 µM, first compound 10 µM
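Note: luminescence signal used as surrogate measure of viable cells; spheroids exposed to compounds for seven days before readout.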
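Throughout, for viability, T/C: 100% = DMSO vehicle control viability as luminescence relative to vehicle.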

Structure (SMILES): CC1COCCN1c1cc(C2(S(C)(=N)=O)CC2)nc(-c2ccnc3[nH]ccc23)n1 (configuration not stated)
- viability, T/C (compound 0.0316 µM): 106% and 91.7% and 104%
- viability, T/C (compound 0.1 µM): 99.9% and 108% and 91.8%
- viability, T/C (compound 0.316 µM): 94.5% and 93.5% and 97.2%
- viability, T/C (compound 1 µM): 70.8% and 83.8% and 71.7%
- viability, T/C (compound 3.16 µM): 41.6% and 77.8% and 42.5%
- viability, T/C (compound 10 µM): 16.7% and 45.8% and 16.9%
- pIC50 (curve of compound): 5.64 and 5.06 and 5.63

Structure (SMILES): Nc1ccc(C#CCN(C(=O)Cc2ncc(C(F)(F)F)cc2C(F)(F)F)c2ccc(F)cc2)nn1
- viability, T/C (compound 0.0316 µM): 100% [middle of 13 runs]
- viability, T/C (compound 0.1 µM): 103% [middle of 13 runs]
- viability, T/C (compound 0.316 µM): 99.6% [middle of 13 runs]
- viability, T/C (compound 1 µM): 101% [middle of 13 runs]
- viability, T/C (compound 10 µM): 107% [middle of 13 runs]
- pIC50 (compound alone, run of 01/19/2024): < 5.00

Structure (SMILES): COc1ccc([C@@H](O)c2cc(-c3ncnc4cc(N5CCOCC5)ccc34)c(F)cc2Cl)nn1 + COC1C(OC(N)=O)C(O)C(Oc2ccc3c(O)c(NC(=O)c4ccc(O)c(CC=C(C)C)c4)c(=O)oc3c2C)OC1(C)C
- pIC50 [1]: 5.51
- pIC50 [2]: 5.48
- pIC50 [3]: 5.40
- pIC50 [4]: 5.52
- pIC50 [5]: 5.42
- pIC50 [6]: 5.44
- viability, T/C [7]: 99.5%
- viability, T/C [8]: 89.1%
- viability, T/C [9]: 94.5%
- viability, T/C [10]: 85.6%
- viability, T/C [11]: 49.1%
- viability, T/C [12]: 8.54%
- viability, T/C [13]: 96.2%
- viability, T/C [14]: 87.7%
- viability, T/C [15]: 100%
- viability, T/C [16]: 87.2%
- viability, T/C [17]: 51.9%
- viability, T/C [18]: 10.8%
- viability, T/C [19]: 109%
- viability, T/C [20]: 101%
- viability, T/C [21]: 99.4%
- viability, T/C [22]: 85.4%
- viability, T/C [23]: 60%
- viability, T/C [24]: 9.63%
- viability, T/C [25]: 103%
- viability, T/C [26]: 96.8%
- viability, T/C [27]: 92.5%
- viability, T/C [28]: 76.4%
- viability, T/C [29]: 48.7%
- viability, T/C [30]: 9.8%
- viability, T/C [31]: 96.6%
- viability, T/C [32]: 102%
- viability, T/C [33]: 91.1%
- viability, T/C [34]: 93.4%
- viability, T/C [35]: 57%
- viability, T/C [36]: 11.2%
- viability, T/C [37]: 107%
- viability, T/C [38]: 107%
- viability, T/C [39]: 95.3%
- viability, T/C [40]: 78.3%
- viability, T/C [41]: 59.3%
- viability, T/C [42]: 8.07%

Structure (SMILES): Nc1ccn(C2OC(CO)C(O)C2(F)F)c(=O)n1 (configuration not stated) + Cc1cccc(N(C)C(=O)C2C(O)CCN2c2nc(C)cc(C(F)(F)F)c2C#N)c1
- pIC50 [1]: > 7.50
- pIC50 [2]: > 7.50
- pIC50 [3]: > 7.50
- pIC50 [4]: > 7.50
- pIC50 [5]: > 7.50
- pIC50 [6]: > 7.50
- viability, T/C [7]: 19.2%
- viability, T/C [8]: 20.4%
- viability, T/C [9]: 17.1%
- viability, T/C [10]: 18%
- viability, T/C [11]: 18.3%
- viability, T/C [12]: 17.3%
- viability, T/C [13]: 20.3%
- viability, T/C [14]: 20%
- viability, T/C [15]: 15.1%
- viability, T/C [16]: 20.4%
- viability, T/C [17]: 18%
- viability, T/C [18]: 16.5%
- viability, T/C [19]: 18.5%
- viability, T/C [20]: 16.1%
- viability, T/C [21]: 18.6%
- viability, T/C [22]: 20.8%
- viability, T/C [23]: 19.3%
- viability, T/C [24]: 17.1%
- viability, T/C [25]: 21.8%
- viability, T/C [26]: 16.5%
- viability, T/C [27]: 18.2%
- viability, T/C [28]: 16.6%
- viability, T/C [29]: 17.2%
- viability, T/C [30]: 17.5%
- viability, T/C [31]: 25.2%
- viability, T/C [32]: 17.2%
- viability, T/C [33]: 21.9%
- viability, T/C [34]: 18.5%
- viability, T/C [35]: 15.5%
- viability, T/C [36]: 18.3%
- viability, T/C [37]: 24.9%
- viability, T/C [38]: 15.6%
- viability, T/C [39]: 20.8%
- viability, T/C [40]: 17.9%
- viability, T/C [41]: 20.2%
- viability, T/C [42]: 19.4%

From PubChem BioAssay AID1963845 (Molecular Pharmacology Branch, DTP, NCI, 2024)
